# Reference: patent publication US9180163B2, “Parstatin peptides” (priority 2009, dated 2015)
# Ends that are not written are not given here.
# Assays:
# [1] = system: myocardial ischemia-reperfusion injury in Sprague Dawley rats; conditions: for infarct size, inhibitor alone: without parstatin (1-26), L-NMA 15 μg/Kg, ODQ 1 mg/kg, glibenclamide 3 mg/kg, atractyloside 3 mg/Kg
# Procedure: Parstatin (1-41) was used in an in vivo rat model of cardiac ischemia and reperfusion, and in an in vitro isolated rat heart model of ischemia-reperfusion injury.
# For in vivo infarct size studies, rats were anesthetized with pentobarbital sodium (50 mg/Kg) and heparin (1000 IU/Kg) and underwent 30 min of regional ischemia followed by 120 min of reperfusion. Parstatin (1-41) was administered-intravenously over 1 min starting 15 min prior to ischemia, or 15 min after the onset of ischemia, or 10 seconds after the onset of reperfusion in separate series of experiments (n=6/group).
# To induce ischemia, ligature was positioned around the left main coronary artery and threaded through a plastic snare to permit reversible occlusion of the coronary artery. Coronary occlusion was induced by clamping the snare onto the heart and reperfusion was achieved by releasing the snare. At the end of reperfusion, the coronary artery was re-occluded and the risk zone was delineated by perfusion of 0.5% Evans' blue into the aortic cannula. Hearts were sectioned and incubated in 1% triphenyltetrazolium chloride in phosphate buffer for 15 min to define white necrotic tissue when fixed in 10% formalin for 24 h. Area at risk (AAR) and infarct-to-risk rations were determined by computerized planimetry using J-Image v.i.6 software (NIH, Bethesda, Mass.).
# For in vivo infarct size/ischemia-reperfusion studies, rats were anesthetized with pentobarbital sodium (50 mg/Kg) and heparin (1000 IU/Kg) and underwent 30 min of regional ischemia followed by 120 min of reperfusion. Human hydrophobic parstatin (1-26) fragment was administered intravenously over 1 min at one of three time points: 1) starting 15 min prior to ischemia, 2) 15 min after the onset of ischemia, or 3) 10 seconds after the onset of reperfusion in a separate series of experiments (n=6/group).
# Ischemia was induced by placement of a ligature around the left main coronary artery which was threaded through a plastic snare to permit reversible occlusion of the coronary artery. Coronary occlusion was induced by clamping the snare onto the heart and reperfusion was achieved by releasing the snare. At the end of reperfusion, the coronary artery was re-occluded and the risk zone was delineated by perfusion 0.5% Evans' blue into the aortic cannula.
# Hearts were sectioned and incubated in 1% triphenyltetrazolium chloride in phosphate buffer for 15 min to define white necrotic tissue when fixed in 10% formalin for 24 h. Area at risk (AAR) and infarct-to-risk rations were determined by computerized planimetry using J-Image v.i.6 software (NIH, Bethesda, Mass.). The principal endpoint of these studies was infarct size expressed as a percentage of the area at risk.
# isolated rat hearts = test: isolated rat heart ischemia-reperfusion; conditions: for infarct size / LVDP, inhibitor alone: without parstatin (1-41), L-NMA 100 μM, ODQ 10 μM
# Procedure: For in vitro studies, excised hearts were retrogradely perfused through the aorta with a modified Krebs buffer. Coronary flow rate was determined by timed collection of the coronary effluent. A saline-filled latex balloon connected to a pressure transducer was inserted into the left […] (LV), and baseline end-diastolic pressure was set at 5-10 mmHg. Heart rate, LV end-diastolic pressure and LV developed pressures (LVDP) were recorded continuously. The measurements for post-ischemic recovery of LVDP used for comparison were taken at 180 min of reperfusion. After stabilization for 15-20 min, the hearts (n=6/group) were subjected to 30 min of regional ischemia, followed by 180 min of reperfusion. Different concentrations of […] (1-41) were perfused 15 min prior to coronary occlusion until occlusion. Control hearts produced an infarct size of 51±3% of the area at risk (FIG. 19A). […] A picture representation of infarct in control versus […] Similarly, […] (1-41) increased recovery of LVDP in a concentration-dependent manner (FIG. 19B). Again, the optimal concentration was 1 μM which produced a 23% recovery of LVDP (FIG. 19B).
# [2] = system: Erk1/2 (p42/44 MAPK) in HUVEC cells; test: Erk1/2 phosphorylation immunoblot (MAP kinase pathway); format: cell-based, human; conditions: pretreatment 1 h, 10 μM; stimulated by FBS, bFGF or VEGF
# Procedure: The MAPK (Erk1/2, p42/44) cascade mediates mitogenesis. […] HUVEC cells were cultured in 35 mm tissue culture dishes. After reaching 80% confluency, cells were growth factor-starved and subsequently stimulated for 10 min with vehicle or indicated agents. In combination experiments, cells were pretreated with parstatin or other peptides for 10 to 60 min.
# Attached cells were lysed with Laenmli sample buffer, resolved in 10% SDS-PAGE, and transferred to nitrocellulose membranes. Membranes were incubated with primary antibodies against phospho p42/44 mitogen-activated protein kinases (p-Erk1/2, New England Biolabs, UK) and p42/44 Erk1/2 (t-Erk1/2, New England Biolabs, UK). Membranes were then probed with secondary antibodies horseradish peroxidase-conjugated, and proteins were visualized by chemiluminescent detection.
# HUVEC cells = test: [3H]-thymidine incorporation (DNA synthesis); format: cell-based, human; conditions: 10 μM, bFGF 5 ng/ml
# Procedure: The ability of parstatin (1-41) to inhibit DNA synthesis of endothelial cells was assessed in thymidine incorporation assays. HUVEC cells were grown until 60-80% confluent in 24-well plates. Cells were treated with indicated peptides in serum-free medium containing either 0.5% BSA, or VEGF, or bFGF, or medium containing 5% FBS, or epidermal growth factor (EGF), or heparin-binging EGF (HB-EGF) for 18 hours. All cells were pulsed with 0.5 μCi/ml [3H]-thymidine (ICN Biomedicals Inc., Irvine Calif.) for additional 6 h. Radioactivity incorporated into DNA was determined in liquid scintillation counter.
# [3] = system: choroidal neovascularization in C57BL/6J mice; format: in vivo; conditions: mouse, in vivo
# Procedure: Parstatin (1-41), hydrophobic parstatin (1-26) fragment and hydrophilic parstatin (24-41) fragment were used in an in vivo mouse model of choroidal neovascularization. In particular, laser photocoagulation-induced rupture of Bruch's membrane was used to generate choroidal neovascularization as a preclinical disease model for age-related macular degeneration. Pathogen-free C57BL/6J (4-5 week-old) mice were treated in accordance with the Association for Research in Vision and Ophthalmology Statement for the Use of Animals in Ophthalmic and Vision Research and the guidelines of the Animal Care and Use Committee at local University Medical School.
# C57BL/6J (4-5 week-old) mice were anesthetized with ketamine hydrochloride (100 mg/kg body weight) and xylazine-(4 mg/Kg body weight) and the pupils were dilated with 1% tropicamide. Laser photocoagulation (75 μm spot size, 0.1 sec duration, 120 mW) was performed in the 9, 12, and 3 o'clock positions of the posterior pole of the retina with the slit lamp delivery system of an Oculight GL diode laser (Index, Mountain View, Calif.) and a handheld cover slip as a contact lens to view the retina. Production of a bubble at the time of laser, which indicates rupture of Bruch's membrane, is an important factor in obtaining CNV. Therefore, only burns in which a bubble was produced were included in the study. Two weeks after rupture of Bruch's membrane, anesthetized mice were perfused with 50 mg/ml fluorescein-labelled-dextran (2×10^6 average molecular weight, Sigma-Aldrich, St. Louis, Mo.). The eyes were then dissected and fixed in 10% Formalin for 3 hours and choroidal flat mounts were examined by fluorescence microscopy. Image-Pro Plus software (Media Cybernetics, Silver Spring, Md.) was used to measure the total area of CNV at each rupture site by personnel blinded as to study treatments and groups.
# Intraocular injections of parstatin peptides were performed with a Harvard pump microinjection apparatus and pulled glass micropipets. […] Choroidal neovascularization was assessed 14 days after laser treatment.
# [4] = system: retinal neovascularization in C57BL/6 mice; format: in vivo; conditions: mouse, in vivo
# Text: Parstatin (1-41), hydrophobic parstatin (1-26) fragment and hydrophilic parstatin (24-41) fragment were used in an in vivo mouse model of retinal neovascularization. In particular, oxygen-induced retinopathy was used to generate retinal neovascularization as a preclinical disease model for retinopathy of prematurity and other retinal neovascular diseases such as diabetic retinopathy. In this model, exposing newborn mice to hyperoxia prompts regression or delay of retinal vascular development, followed by abnormal angiogenesis after their return to normal oxygen levels. Mainly, this model mirrors the events that occur during retinopathy of prematurity, when infants are removed from oxygen-rich incubators, a condition involving pathological neovascularization that can affect premature infants and result in permanent visual loss. In recent years, the use of this model has been extended to the general study of ischemic vasculopathies, such us diabetic retinopathy, and related antiangiogenic interventions, and it is now used extensively in both basic and applied research environments.
# Pathogen-free C57BL/6 mice were treated in accordance with the Association for Research in Vision and Ophthalmology Statement for the Use of Animals in Ophthalmic and Vision Research and the guidelines of the Animal Care and Use Committee at local University Medical School. Litters of 7-day old (P7) mice were exposed to an atmosphere of 75% oxygen in an airtight incubator for 5 days (P12), after which they were returned to room air for 5 days (P17). For quantification of oxygen-induced retinal neovascularization, mice on P17 were given an intraocular injection of 1 μl of rat anti-mouse platelet endothelial cell adhesion molecule-1 (PECAM-1) antibody (Pharmingen, San Jose, Calif.) under a dissecting microscope with Harvard pump microinjection apparatus. Mice were euthanized 12 hours after injection and eyes were fixed in PBS-buffered formalin for 5 hours. […] Retinal flat mounts were prepared and assessed with fluorescence microscope using imaging software. […]
Compound,"infarct size, inhibitor alone [1]","infarct size / LVDP, inhibitor alone (isolated rat hearts)",also measured
"C=C1[C@@H]2CC[C@H]3[C@]4(C)C[C@H](O[C@@H]5O[C@H](CO)[C@@H](OS(=O)(=O)O)[C@H](OS(=O)(=O)O)[C@H]5OC(=O)CC(C)C)C[C@@H](C(=O)O)[C@H]4CC[C@]3(C2)[C@H]1O [Atractyloside, atractyloside, reference compound]",no effect,–,–
"COc1ccc(Cl)cc1C(=O)NCCc1ccc(S(=O)(=O)NC(=O)NC2CCCCC2)cc1 [Glibenclamide, glibenclamide, reference compound]",no effect,–,–
"COC(=O)[C@@H](N)CCCNC(=N)N[N+](=O)[O-] [L-NMA, Nω-nitro-L-arginine methyl ester, reference compound]",without effect,no effect,–
"O=c1onc2cnc3ccccc3n12 [ODQ, 1H-[1,2, 4]oxadiazolo-[4,3-a]quinoxalin-1-one, reference compound]",no effect,no effect,–
"MGPRRLLLVAACFSLCGPLL-SARALTRSAPTPRDRANKETR (MGPRRLLLVAACFSLCGPLLSARALTRSAPTPRDRANKETR; Scrambled synthetic peptide) [modulated parstatin, human parstatin with amino acids 24 to 41 scrambled]",–,–,activation of Erk1/2 [2]: inhibit; bFGF-induced DNA synthesis (HUVEC cells): inhibit
MGPRRLLLVAACFSLCGPLLSARTRARRPESKATNATLDPR (cysteines drawn unpaired) [parstatin (1-41)],–,–,"tolerability (slit lamp: irritation, inflammation, ocular toxicity; systemic toxicity) [3]: well tolerated; inotropic or chronotropic effects before ischemia (isolated rat hearts; 1 μM): did not have inotropic or chronotropic effects; baseline hemodynamics (heart rate, blood pressures) between groups ([1]; rat, in vivo): no significant differences; tolerability in newborn mice [4]: not well tolerated"
